Source: patent US20260053764A1, “COMPOSITION FOR PREVENTING DETERIORATION IN COGNITIVE FUNCTION AND/OR IMPROVING COGNITIVE FUNCTION” (PHARMA FOODS INTERNATIONAL CO., LTD., priority 2020, published 2026)

Tested on: cognitive function of a human
Test: Cognitrax test in placebo-controlled randomized double-blind clinical tests A and B
Type: in vivo
Design: Reaction time / Complex attention / Cognitive flexibility / Social acuity / Non-verbal reasoning / Working memory / Continuous attention / Simple attention: scale not given here
Text: A Cognitrax test is known as such an examination that can assess a plurality of domains or items of cognitive function. The Cognitrax test is a cognitive function examination service practiced on the Web based on the cognitive function examination technique developed by CNS Vital Signs in the United States. In the Cognitrax test, among a total of 10 types of tests, which are verbal memory test, visual memory test, finger tapping test, symbol digit coding test (SDC test), Stroop test, shifting attention test, continuous performance test, perception of emotion test, reasoning test and four part continuous performance test, a test is carried out in accordance with the purpose of the examination to digitize the examination result regarding each of a total of 16 types of items at most, which are neurocognition index, composite memory, verbal memory, visual memory, psychomotor speed, reaction time, complex attention, cognitive flexibility, processing speed, executive function, social acuity, non-verbal reasoning, working memory, continuous attention, simple attention and motor speed.
Two types of placebo-controlled randomized double-blind two-group parallel comparison tests were carried out as clinical tests. […] Specifically, capsules comprising 100 mg of dextrin per capsule were used as the placebo food.
The screening examination was carried out to select 60 subjects for each test (a total of 120 subjects). MMSE (Mini Mental State Examination) is an examination for assessing the degree of progression of dementia or the like based on the score thereof with 30 as the perfect score, wherein dementia is suspected with a score of 23 or lower.
• (1) Japanese male and female at the age of 40 or higher • (2) People aware of reduction in cognitive function • (3) People who can continuously ingest the test food every day for 12 weeks • (4) People with an MMSE score of 24 or higher • (5) People who have received sufficient explanation of the purpose/content of the clinical test, have the ability to give consent, voluntarily applied to participate in the clinical test with sufficient understanding, and gave consent to the participation in the clinical test on paper
The total of 120 subjects were randomly divided into test A active group, test A placebo group, test B active group and test B placebo group with 30 subjects in each group. Each subject of the test A active group ingested two capsules of the active food, each subject of the test A placebo group ingested two capsules of the placebo food, each subject of the test B active group ingested one capsule of the active food and each subject of the test B placebo group ingested one capsule of the placebo food.
Each subject followed the schedule shown in the table below and ingested one or two of the assigned capsules together with water for 12 weeks from two weeks after the initial screening examination. All subjects had no particular instruction during the ingestion period and freely took their meals.
As shown with ● in the test schedule in Table 1, Cognitrax was carried out a total of five times, which are upon screening, before starting test food sample ingestion, after four weeks of ingestion, after eight weeks of ingestion and after twelve weeks of ingestion, and the RBANS neuropsychological test was carried out a total of two times, which are before staring test food ingestion and after twelve weeks of ingestion.

[1] = test B 100 mg, before ingestion
[2] = test B 100 mg, before ingestion, mean ± SD

NCCCC(=O)O [GABA, γ-aminobutyric acid]
Cognition flexibility: difference between active food and placebo food groups (test B 100 mg, 4 w): −3.6
Complex attention: difference between active food and placebo food groups (test B 100 mg, 4 w): −4.0
Composite memory: difference between active food and placebo food groups (test B 100 mg, 4 w): 7.2
Continuous attention: difference between active food and placebo food groups (test B 100 mg, 4 w): −0.6
Executive function: difference between active food and placebo food groups (test B 100 mg, 4 w): −3.2
Motor speed: difference between active food and placebo food groups (test B 100 mg, 4 w): 6.9
Non-verbal reasoning: difference between active food and placebo food groups (test B 100 mg, 4 w): 0.5
Processing speed: difference between active food and placebo food groups (test B 100 mg, 4 w): 0.8
Psychomotor speed: difference between active food and placebo food groups (test B 100 mg, 4 w): 5.3
Reaction time: difference between active food and placebo food groups (test B 100 mg, 4 w): 0.8
Simple attention: difference between active food and placebo food groups (test B 100 mg, 4 w): −5.8
Social acuity: difference between active food and placebo food groups (test B 100 mg, 4 w): −4.4
Verbal memory: difference between active food and placebo food groups (test B 100 mg, 4 w): 9.1
Visual memory: difference between active food and placebo food groups (test B 100 mg, 4 w): 2.4
Working memory: difference between active food and placebo food groups (test B 100 mg, 4 w): 0.4
Cognitive flexibility (test B 100 mg, 4 w, mean ± SD): 105.8 ± 11.3
Complex attention (test B 100 mg, 4 w, mean ± SD): 106.3 ± 12.9
Continuous attention (test B 100 mg, 4 w, mean ± SD): 111.8 ± 7.2
Reaction time (test B 100 mg, 4 w, mean ± SD): 97.8 ± 10.8
Simple attention (test B 100 mg, 4 w, mean ± SD): 97.8 ± 25.2
Social acuity (test B 100 mg, 4 w, mean ± SD): 90.5 ± 16.7
Working memory (test B 100 mg, 4 w, mean ± SD): 110.4 ± 9.3
Cognition flexibility: difference between active food and placebo food groups (test B 100 mg, 8 w): −0.5
Complex attention: difference between active food and placebo food groups (test B 100 mg, 8 w): −0.4
Composite memory: difference between active food and placebo food groups (test B 100 mg, 8 w): 7.4
Continuous attention: difference between active food and placebo food groups (test B 100 mg, 8 w): −0.8
Executive function: difference between active food and placebo food groups (test B 100 mg, 8 w): −0.4
Motor speed: difference between active food and placebo food groups (test B 100 mg, 8 w): 7.3
Non-verbal reasoning: difference between active food and placebo food groups (test B 100 mg, 8 w): 0.5
Processing speed: difference between active food and placebo food groups (test B 100 mg, 8 w): 1.5
Psychomotor speed: difference between active food and placebo food groups (test B 100 mg, 8 w): 6.3
Reaction time: difference between active food and placebo food groups (test B 100 mg, 8 w): 1.4
Simple attention: difference between active food and placebo food groups (test B 100 mg, 8 w): 2.8
Social acuity: difference between active food and placebo food groups (test B 100 mg, 8 w): 6.1
Verbal memory: difference between active food and placebo food groups (test B 100 mg, 8 w): 8.8
Visual memory: difference between active food and placebo food groups (test B 100 mg, 8 w): 3.1
Working memory: difference between active food and placebo food groups (test B 100 mg, 8 w): −1.8
Complex attention (test B 100 mg, 8 w, mean ± SD): 109.6 ± 10.3
Continuous attention (test B 100 mg, 8 w, mean ± SD): 110.2 ± 8.9
Non-verbal reasoning (test B 100 mg, 8 w, mean ± SD): 106.2 ± 12.2
Reaction time (test B 100 mg, 8 w, mean ± SD): 97.9 ± 10.0
Simple attention (test B 100 mg, 8 w, mean ± SD): 101.3 ± 13.0
Social acuity (test B 100 mg, 8 w, mean ± SD): 95.4 ± 17.0
Working memory (test B 100 mg, 8 w, mean ± SD): 109.8 ± 9.5
Cognition flexibility: difference between active food and placebo food groups (test B 100 mg, 12 w): −2.3
Complex attention: difference between active food and placebo food groups (test B 100 mg, 12 w): −2.5
Composite memory: difference between active food and placebo food groups (test B 100 mg, 12 w): 5.5
Continuous attention: difference between active food and placebo food groups (test B 100 mg, 12 w): 0.0
Executive function: difference between active food and placebo food groups (test B 100 mg, 12 w): −2.4
Motor speed: difference between active food and placebo food groups (test B 100 mg, 12 w): 6.5
Non-verbal reasoning: difference between active food and placebo food groups (test B 100 mg, 12 w): 3.9
Processing speed: difference between active food and placebo food groups (test B 100 mg, 12 w): 2.4
Psychomotor speed: difference between active food and placebo food groups (test B 100 mg, 12 w): 5.4
Reaction time: difference between active food and placebo food groups (test B 100 mg, 12 w): −1.7
Simple attention: difference between active food and placebo food groups (test B 100 mg, 12 w): −6.5
Social acuity: difference between active food and placebo food groups (test B 100 mg, 12 w): 4.6
Verbal memory: difference between active food and placebo food groups (test B 100 mg, 12 w): 6.8
Visual memory: difference between active food and placebo food groups (test B 100 mg, 12 w): 2.1
Working memory: difference between active food and placebo food groups (test B 100 mg, 12 w): 0.9
Complex attention (test B 100 mg, 12 w, mean ± SD): 109.9 ± 10.1
Continuous attention (test B 100 mg, 12 w, mean ± SD): 110.8 ± 13.8
Motor speed (test B 100 mg, 12 w, mean ± SD): 108.3 ± 12.9
Non-verbal reasoning (test B 100 mg, 12 w, mean ± SD): 107.5 ± 10.6
Simple attention (test B 100 mg, 12 w, mean ± SD): 99.2 ± 21.3
Social acuity (test B 100 mg, 12 w, mean ± SD): 97.2 ± 17.0
Working memory (test B 100 mg, 12 w, mean ± SD): 112.2 ± 7.9
Cognition flexibility: difference between active food and placebo food groups [1]: 2.4
Complex attention: difference between active food and placebo food groups [1]: 3.0
Composite memory: difference between active food and placebo food groups [1]: 5.2
Continuous attention: difference between active food and placebo food groups [1]: 1.2
Executive function: difference between active food and placebo food groups [1]: 2.1
Motor speed: difference between active food and placebo food groups [1]: 6.4
Non-verbal reasoning: difference between active food and placebo food groups [1]: 3.1
Processing speed: difference between active food and placebo food groups [1]: 1.5
Psychomotor speed: difference between active food and placebo food groups [1]: 4.5
Reaction time: difference between active food and placebo food groups [1]: 1.9
Simple attention: difference between active food and placebo food groups [1]: 3.3
Social acuity: difference between active food and placebo food groups [1]: 0.8
Verbal memory: difference between active food and placebo food groups [1]: 6.4
Visual memory: difference between active food and placebo food groups [1]: 2.0
Working memory: difference between active food and placebo food groups [1]: 2.6
Cognitive flexibility [2]: 105.9 ± 10.0
Continuous attention [2]: 111.6 ± 6.9
Executive function [2]: 105.5 ± 9.9
Non-verbal reasoning [2]: 102.6 ± 14.1
Reaction time [2]: 98.1 ± 9.0
Simple attention [2]: 101.2 ± 14.9
Social acuity [2]: 92.6 ± 16.0
Working memory [2]: 110.5 ± 7.9
scores regarding motor speed, GABA group compared to the placebo group (test B, at least after eight weeks of ingestion): significant improvement
